ChEMBL document CHEMBL1833939, “Pyrrolidin-3-yl-N-methylbenzamides as potent histamine 3 receptor antagonists” (Bioorg Med Chem Lett, 2011)

Assay: in vitro
Settings: human

| SMILES | half-life (liver microsomes) [min] | half-life (microsomes) [min] |
| --- | --- | --- |
| Cc1nc2ccccc2n1-c1ccc(C(=O)N(C)[C@@H]2CCN(C3CCC3)C2)cc1 | 15 | – |
| Cc1nc2ccccc2n1-c1ccc(C(=O)N(C)[C@@H]2CCN(C3CCCC3)C2)cc1 | > 30 | – |
| Cc1nc2ccccc2n1-c1ccc(C(=O)N(C)[C@@H]2CCN(C3CCCCC3)C2)cc1 | – | > 30 |
